Values quoted from earlier work in patent publication US20130090323A1, “HETEROCYCLIC COMPOUNDS AND THEIR USES” (Amgen Inc., priority 2010, published 2013).

Columns and labels:
[1] = tested on: protein kinases
[2] = tested on: murine model of asthma; conditions: mouse, in vivo
[3] = tested on: murine model of allergic disease; conditions: absence of functional delta (compound and p110δ D910A mice)
[4] = target: T1, p110δ (Homo sapiens, UniProt O00329)
T1 sequence (O00329 1-1044): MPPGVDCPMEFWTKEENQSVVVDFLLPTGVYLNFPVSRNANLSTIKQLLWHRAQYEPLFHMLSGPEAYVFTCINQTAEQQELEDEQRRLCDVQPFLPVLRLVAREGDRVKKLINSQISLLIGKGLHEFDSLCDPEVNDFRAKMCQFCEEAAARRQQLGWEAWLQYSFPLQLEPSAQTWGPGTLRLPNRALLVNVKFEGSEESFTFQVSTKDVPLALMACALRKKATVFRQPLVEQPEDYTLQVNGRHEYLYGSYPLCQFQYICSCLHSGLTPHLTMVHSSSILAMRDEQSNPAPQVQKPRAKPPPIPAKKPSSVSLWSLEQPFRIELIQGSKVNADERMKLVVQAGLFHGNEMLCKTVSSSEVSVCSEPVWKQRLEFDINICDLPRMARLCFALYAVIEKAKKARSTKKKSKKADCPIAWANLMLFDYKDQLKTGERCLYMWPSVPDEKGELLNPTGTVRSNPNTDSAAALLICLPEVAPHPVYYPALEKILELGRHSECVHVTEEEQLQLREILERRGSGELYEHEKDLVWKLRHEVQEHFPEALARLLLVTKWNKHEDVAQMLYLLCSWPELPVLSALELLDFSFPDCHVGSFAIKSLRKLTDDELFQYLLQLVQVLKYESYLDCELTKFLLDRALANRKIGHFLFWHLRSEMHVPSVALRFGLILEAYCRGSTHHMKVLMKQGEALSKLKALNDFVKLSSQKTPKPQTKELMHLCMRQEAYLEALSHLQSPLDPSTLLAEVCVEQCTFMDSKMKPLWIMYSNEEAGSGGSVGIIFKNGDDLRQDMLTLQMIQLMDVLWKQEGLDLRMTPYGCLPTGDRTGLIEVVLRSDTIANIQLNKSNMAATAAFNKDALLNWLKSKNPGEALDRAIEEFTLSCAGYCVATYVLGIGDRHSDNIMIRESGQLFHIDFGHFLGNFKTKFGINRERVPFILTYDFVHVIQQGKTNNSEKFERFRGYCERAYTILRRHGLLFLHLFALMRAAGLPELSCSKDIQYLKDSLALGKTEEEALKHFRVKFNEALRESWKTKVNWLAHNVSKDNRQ

[5] = tested on: mouse model of rheumatoid arthritis; conditions: in vivo
[6] = tested on: model of systemic lupus erythematosis; conditions: in vivo

Row | Compound | activity against any protein kinases tested [1] | inflammation and disease in ovalbumin-induced airway inflammation [2] | passive cutaneous anaphylaxis (PCA) [3] | inhibition of p110δ [4] | efficacy in a mouse model of rheumatoid arthritis [5] | onset of disease in a model of systemic lupus erythematosis [6]
1 | Cc1ccccc1-n1c(Cn2cnc3c(N)ncnc32)nc2cccc(C)c2c1=O [IC87114] | no activity | significantly ameliorate inflammation and disease | significantly reduced | high nanomolar range (triple digit) | – | –
2 | O=C1NC(=O)/C(=C\c2ccc3nccnc3c2)S1 [AS 605240] | – | – | – | – | efficacious | delay onset of disease
